Measured values reported in US20190216891A1, “METHOD FOR MODULATING MYELINATION” (Yeda Research and Development Co., Ltd., priority 2016, published 2019).
Entries after “also recorded” stand apart in the source; their conditions may differ.

Legend:
Type in all cases: cell-based, mouse
[1] = test system: nuclear translocation of ERK1/2; assay: Nuclear localization of pERK in cultured OPCs (immunolabeling pERK, PLP, Dapi); conditions: Gpr37−/− OPCs (DIV7)
Method: (§1) FIGS. 11A-B illustrate that EPE blocks the nuclear translocation of pERK in Gpr37 null oligodendrocytes. A. Cultured OPCs isolated from WT and Gpr37^−/− mice were grown for 3 days (DIV2-DIVS) in the presence or absence (control) of EPE, followed by immunolabeling with antibodies to pERK and PLP. The nuclei were labeled with Dapi. PLP and pERK immunoreactivity are shown in separate images along with the Dapi signal. Higher magnification of the nucleus is shown in the insets in each panel. […] Scale bar, 50 μm. […] Cultures were grown in the absence (DME), or presence of EPE, PLX4032, or DMSO as control for 6 days, and then fixed at DIV7 and labeled with antibodies to Olig2. The number of positive cells per field of view is shown in the graph. Bars represent mean±SEM (n=3 different cultures per each genotype; 10 fields of view were analyzed for each culture).
FIGS. 12A-D illustrate the involvement of cAMP in Gpr37 signaling in oligodendrocytes. A-B. Absence of Gpr37 results in increased levels of cAMP in mice brain (A) and cultured OPCs (B). Intracellular cAMP was extracted from P70 mice brains (*P<0.05, t-test; n=6 WT and n=7 KO mice), or from DIV5 cultured OPCs (*P<0.01, t-test; n=3 different OPC primary cultures of each genotype) and detected by ELISA. C. Adenylate cyclase inhibition prevents the nuclear translocation of pERK in Gpr37^−/− OPCs. Cultured wild type (WT) and Gpr37^−/− OPCs (DIV7) were left untreated (control) or treated with the adenylyl cyclase inhibitor SQ22536 (0.1 mM) for 2 hours in their growth medium. Cells were then fixed and labeled with Dapi to mark their nuclei, and with antibodies to PLP and pERK. […] Bars show mean±SEM (*P<0.01, t-test; n=3 different primary cultures for each genotype; 50 PLP-positive cells were counted per each culture).
FIGS. 13A-B illustrate that inhibition of Epac activity attenuates nuclear translocation of ERK1/2 in oligodendrocytes lacking GPR37. […] Bars show mean±SEM (*P<0.05, **P<0.01, t-test; n=3 different primary cultures for each genotype; 100 PLP-positive cells were counted per each culture). […]

wild type OPC cultures = assay: Oligodendrocyte differentiation in wild type OPC cultures (PLP and O4 immunolabeling); conditions: wild type OPC cultures grown four days with 1mM IBMX
Method: A. Immunolabeling of wild type OPC cultures grown for four days in the absence (Control) or presence of 1mM 3-isobutyl-1-methylxanthine (IBMX) using antibodies to PLP and O4. Dapi was used to label the nuclei. Scale bar, 50 μm. B. Percentage of PLP-positive oligodendrocytes among the total O4-positive cells (**P<0.01, t-test, n=3 cultures). Bars represent mean±SEM.
Immunofluorescence and Immunoblotting For immunohistochemistry, mice were anesthetized and perfused with 2% PFA/PBS. Brains and optic nerves were isolated and post fixed on ice for 15 min, followed by 30% sucrose/ PBS at 4° C. overnight. Tissues were embedded in OCT and sectioned. Sections were permeabilized in methanol at −20° C. for 5 min. Immunostaining of GPR37 was carried out using 2%PFA-perfused mouse brain sections that were permeabilized with cold acetone and blocked with 5% fish gelatin and 0.5% Triton-X100 at RT for 1 hr. For immunocytochemistry, cells were fixed with 4% PFA/ PBS for 15min at room temperature. For O4 staining, live cells were incubated with medium containing the O4 antibody at 37° C. for 45min before fixation. […] Western blot analysis was done using OPC cultures lysed in loading buffer and chemiluminescence was detected using the ChemiDoc MP System (Bio-Rad). […]

[2] = test system: oligodendrocytes co-cultured with DRG neurons; assay: Number of Olig2 cells in oligodendrocyte/DRG neuron co-cultures; conditions: both genotypes (WT and Gpr37−/−); 6 days treatment, fixed at DIV7
Method: as §1
Immunofluorescence and Immunoblotting For immunohistochemistry, mice were anesthetized and perfused with 2% PFA/PBS. Brains and optic nerves were isolated and post fixed on ice for 15 min, followed by 30% sucrose/ PBS at 4° C. overnight. Tissues were embedded in OCT and sectioned. Sections were permeabilized in methanol at −20° C. for 5 min. […] Western blot analysis was done using OPC cultures lysed in loading buffer and chemiluminescence was detected using the ChemiDoc MP System (Bio-Rad). […]

[3] = test system: oligodendrocytes co-cultured with DRG neurons; assay: OPC/DRG neuron co-cultures: PLP-positive oligodendrocytes associated with axonal Caspr clustering
Source text: FIGS. 5A-H illustrate that Gpr37-dependent inhibition of oligodendrocyte differentiation is mediated by ERK phosphorylation and nuclear translocation. A. Immunolabeling of sagittal brain sections of P12 brain stems from wild type (WT) and KO (Gpr37^−/−) mice using antibodies to phosphorylated ERK (pERK) and Olig2. B. The number of pERK and Olig2 positive cells in Gpr37^−/− compared to WT brainstem (*P<0.05, n=5 images from two mice per genotype). C. Western blot analysis of purified OPC cultures at DIV7 (three cultures per each genotype are shown). Blots were incubated with antibodies to pERK or general ERK (ERK) as indicated. D. Relative value of pERK intensity normalized by general ERK (p=0.02, n=7 cultures each genotype). E. pERK is present in the nucleus of oligodendrocytes lacking Gpr37. […] (* p<0.05, n=3 different primary cultures for each genotype; 100 PLP-positive oligodendrocytes were counted per each culture). […] H. Quantitation of the results showing the fold change in the percent of PLP-positive cells that associate with axonal Caspr immunoreactivity in all samples compare to the non-treated wild type cultures. […]
Immunofluorescence and Immunoblotting For immunohistochemistry, mice were anesthetized and perfused with 2% PFA/PBS. […] Western blot analysis was done using OPC cultures lysed in loading buffer and chemiluminescence was detected using the ChemiDoc MP System (Bio-Rad). […]

Question: For `CC(C)(C)c1cc(C(=O)/C(C#N)=N/Nc2cccc(Cl)c2)no1` [ESI-09], which “number of oligodendrocytes displaying nuclear localization of pERK (ERK1/2)” value ([1]; ESI-09 1 μM for 2 hours, vs DMSO) is on record?
Answer: significant decrease; also recorded: reduced to equivalent level of wild type cells

Question: How did the “oligodendrocyte differentiation (percentage of PLP-positive oligodendrocytes among total O4-positive cells)” value (wild type OPC cultures) turn out when `CC(C)Cn1c(=O)n(C)c(=O)c2[nH]cnc21` [IBMX, 3-isobutyl-1-methylxanthine] was run?
Answer: enhances the differentiation; also recorded: enhances oligodendrocyte differentiation

Question: Which results are given for `CCCS(=O)(=O)Nc1ccc(F)c(C(=O)c2c[nH]c3ncc(-c4ccc(Cl)cc4)cc23)c1F` [PLX4032]?
Answer: number of Olig2 cells (per field of view) [2]: do not affect; number of PLP-positive oligodendrocytes associated with intense axonal clustering of Caspr ([3]; Gpr37−/− oligodendrocytes with wild type DRG neurons, 6 days in 10 μM EPE or 1 μM PLX4032, vs DMSO control): completely abolished; also recorded: significantly low number; PLP-positive oligodendrocytes associated with axonal clustering of Caspr ([3]; wild type cultures, 6 days in 10 μM EPE or 1 μM PLX4032): no effect

Question: What does the source list for `Nc1ncnc2c1ncn2C1CCCO1` (stereo not shown) [SQ 22536]?
Answer: number of oligodendrocytes displaying nuclear localization of pERK (ERK1/2) ([1]; SQ22536 0.1 mM for 2 hours): significant decrease; number of oligodendrocytes displaying nuclear localization of pERK (ERK1/2) ([1]; SQ22536 0.1 mM for 2 hours, listed as SQ22536): reduced to equivalent levels of wild type cells
